As usually defined, the IC50 is the midpoint of a concentration-inhibition curve.

Bounds are passed on as bounds.

Among the data in patent US9932340B2, “Substituted indoles” (AbbVie Inc., priority 2014, dated 2018) are IC50 values, retold here.

For this assay, the target named is SUV420H1 enzyme (Homo sapiens, UniProt Q4FZB7). The assay is described as follows: TR-FRET SAH SUV420H1 enzyme inhibition assay. It is filed as biochemical. To be noted: Histone Peptide H4(8-30)me1 and SAM, overnight at room temp, TR-FRET detection of SAH, read-out: TR-FRET SAH_SUV420H1 IC50. A digest of the protocol: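 SUV420H1 (90 nM) preincubated 30 min with compound (3-fold dilutions, 50 to 0.00075 μM), then H4(8-30)me1 peptide 5 nM and SAM 4 nM added, overnight at room temp. SAH product detected by TR-FRET with Tb anti-SAH antibody and Oregon Green-SAH in RIPA buffer, 4 h; IC50 from Hill fit, asymptotes fixed 0-100%.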
Sequence of SUV420H1 enzyme (Q4FZB7 whole entry): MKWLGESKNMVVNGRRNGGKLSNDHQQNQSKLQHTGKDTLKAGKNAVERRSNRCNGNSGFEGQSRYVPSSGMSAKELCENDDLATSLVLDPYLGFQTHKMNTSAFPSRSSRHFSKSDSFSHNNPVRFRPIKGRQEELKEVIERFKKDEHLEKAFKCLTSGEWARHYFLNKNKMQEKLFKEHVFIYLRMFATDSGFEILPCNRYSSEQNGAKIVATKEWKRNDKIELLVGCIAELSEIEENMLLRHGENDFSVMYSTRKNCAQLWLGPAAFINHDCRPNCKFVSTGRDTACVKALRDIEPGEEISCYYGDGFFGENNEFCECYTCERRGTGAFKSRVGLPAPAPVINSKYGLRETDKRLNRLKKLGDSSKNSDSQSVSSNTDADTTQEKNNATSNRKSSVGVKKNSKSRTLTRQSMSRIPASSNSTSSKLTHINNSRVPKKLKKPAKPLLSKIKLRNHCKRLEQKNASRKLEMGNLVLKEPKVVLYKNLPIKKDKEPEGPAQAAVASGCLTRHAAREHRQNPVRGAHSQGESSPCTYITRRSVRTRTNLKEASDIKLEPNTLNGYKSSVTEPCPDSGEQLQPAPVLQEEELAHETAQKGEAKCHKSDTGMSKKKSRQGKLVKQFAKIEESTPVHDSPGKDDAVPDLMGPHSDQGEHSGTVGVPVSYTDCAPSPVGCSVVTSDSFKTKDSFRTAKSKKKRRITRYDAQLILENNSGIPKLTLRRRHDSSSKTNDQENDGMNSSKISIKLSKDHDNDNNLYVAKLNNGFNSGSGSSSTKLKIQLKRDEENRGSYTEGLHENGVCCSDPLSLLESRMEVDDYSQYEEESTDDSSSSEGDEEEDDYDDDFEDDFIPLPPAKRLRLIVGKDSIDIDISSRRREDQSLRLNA
On the technique in general: TR-FRET usually uses a lanthanide donor and a delayed reading to cut background.
For `Cc1nc2cc(C(=O)NCc3cc4cc(Cl)cc(Cn5cnc6c(N)ncnc65)c4[nH]3)ccc2n1CCO` [Example 376, N-({7-[(6-amino-9H-purin-9-yl)methyl]-5-chloro-1H-indol-2-yl}methyl)-1-(2-hydroxyethyl)-2-methyl-1H-benzimidazole-5-carboxamide], the IC50 was 2950 nM. For the compound `Nc1ncnc2c1ncn2Cc1cc(Cl)cc2cc(CNC(=O)c3ccc4[nH]nnc4c3)[nH]c12` [Example 332, N-({7-[(6-amino-9H-purin-9-yl)methyl]-5-chloro-1H-indol-2-yl}methyl)-1H-benzotriazole-5-carboxamide], the IC50 amounted to 2020 nM. As for `CC(=O)N1CC=C(c2cc(Cn3cnc4c(N)ncnc43)c3[nH]c(CNC(=O)c4ccc(C#N)cc4Cl)cc3c2)CC1` [Example 279, N-({5-(1-acetyl-1,2,3,6-tetrahydropyridin-4-yl)-7-[(6-amino-9H-purin-9-yl)methyl]-1H-indol-2-yl}methyl)-2-chloro-4-cyanobenzamide], the figure is 49.3 nM; as for `CC(C)n1nnc2cc(C(=O)NCc3cc4cc(Cl)cc(Cn5cnc6c(N)ncnc65)c4[nH]3)ccc21` [Example 371, N-({7-[(6-amino-9H-purin-9-yl)methyl]-5-chloro-1H-indol-2-yl}methyl)-1-(propan-2-yl)-1H-benzotriazole-5-carboxamide], 21500 nM; as for `Nc1ncnc2c1ncn2Cc1cc(Cl)cc2cc(CNCc3cc(F)ccc3Cl)[nH]c12` [Example 217, 9-[(5-chloro-2-{[(2-chloro-5-fluorobenzyl)amino]methyl}-1H-indol-7-yl)methyl]-9H-purin-6-amine], 2430 nM. As to `Nc1ncnc2c1ncn2Cc1cc(Cl)cc2cc(CNC(=O)C3(O)CCC3)[nH]c12` [Example 112, N-({7-[(6-amino-9H-purin-9-yl)methyl]-5-chloro-1H-indol-2-yl}methyl)-1-hydroxycyclobutanecarboxamide], the IC50 stood at 32000 nM. As for `COc1ccccc1-c1ccc(Cn2cnc3c(N)ncnc32)c2[nH]c(CN)cc12` [Example 80, 9-{[2-(aminomethyl)-4-(2-methoxyphenyl)-1H-indol-7-yl]methyl}-9H-purin-6-amine], the figure is 1850 nM; as for `Nc1ncnc2c1ncn2Cc1cc(Cl)cc2cc(CNC(=O)c3cccs3)[nH]c12` [Example 144, N-({7-[(6-amino-9H-purin-9-yl)methyl]-5-chloro-1H-indol-2-yl}methyl)thiophene-2-carboxamide], 4600 nM.

For the compound `Cc1noc(C)c1C(=O)NCc1cc2cc(-c3cccc(C(N)=O)c3)cc(Cn3cnc4c(N)ncnc43)c2[nH]1` [Example 173, N-({7-[(6-amino-9H-purin-9-yl)methyl]-5-(3-carbamoylphenyl)-1H-indol-2-yl}methyl)-3,5-dimethyl-1,2-oxazole-4-carboxamide], the IC50 worked out at 41.2 nM. The figure for `CCNc1ccccc1C(=O)NCc1cc2cc(Cl)cc(Cn3cnc4c(N)ncnc43)c2[nH]1` [Example 310, N-({7-[(6-amino-9H-purin-9-yl)methyl]-5-chloro-1H-indol-2-yl}methyl)-2-(ethylamino)benzamide] is 13200 nM. The figure for `CCc1noc(C)c1C(=O)NCc1cc2cc(Cl)cc(Cn3cnc4c(N)ncnc43)c2[nH]1` [Example 186, N-({7-[(6-amino-9H-purin-9-yl)methyl]-5-chloro-1H-indol-2-yl}methyl)-3-ethyl-5-methyl-1,2-oxazole-4-carboxamide] is 263 nM; for `CCn1nc(C)c(C(=O)NCc2cc3cc(Cl)cc(Cn4cnc5c(N)ncnc54)c3[nH]2)c1C` [Example 188, N-({7-[(6-amino-9H-purin-9-yl)methyl]-5-chloro-1H-indol-2-yl}methyl)-1-ethyl-3,5-dimethyl-1H-pyrazole-4-carboxamide] it is 507 nM. As for `Cc1ccccc1CNCc1cc2cc(Cl)cc(Cn3cnc4c(N)ncnc43)c2[nH]1` [Example 242, 9-[(5-chloro-2-{[(2-methylbenzyl)amino]methyl}-1H-indol-7-yl)methyl]-9H-purin-6-amine], the figure is 2640 nM. For `N#Cc1ccc(C(=O)NCc2cc3cc(C4=CCC(F)(F)CC4)cc(Cn4cnc5c(N)ncnc54)c3[nH]2)c(Cl)c1` [Example 278, N-({7-[(6-amino-9H-purin-9-yl)methyl]-5-(4,4-difluorocyclohex-1-en-1-yl)-1H-indol-2-yl}methyl)-2-chloro-4-cyanobenzamide], the IC50 was determined as 67.4 nM. The figure for `C=Cc1cc(Cn2cnc3c(N)ncnc32)c2[nH]c(CN)cc2c1` [Example 10, 9-{[2-(aminomethyl)-5-ethenyl-1H-indol-7-yl]methyl}-9H-purin-6-amine] is 1870 nM. Turning to `Nc1ncnc2c1ncn2Cc1cc(Cl)cc2cc(CNC(=O)c3cc4[nH]nnc4cc3F)[nH]c12` [Example 334, N-({7-[(6-amino-9H-purin-9-yl)methyl]-5-chloro-1H-indol-2-yl}methyl)-5-fluoro-1H-benzotriazole-6-carboxamide], the IC50 amounted to 2040 nM. The figure for `COc1cccc(C)c1C(=O)NCc1cc2cc(Cl)cc(Cn3cnc4c(N)ncnc43)c2[nH]1` [Example 299, N-({7-[(6-amino-9H-purin-9-yl)methyl]-5-chloro-1H-indol-2-yl}methyl)-2-methoxy-6-methylbenzamide] is 1840 nM; for `NCc1cc2cc(-c3cccc(C(=O)NC4CC4)c3)cc(Cn3cnc4c(N)ncnc43)c2[nH]1` [Example 51, 3-{2-(aminomethyl)-7-[(6-amino-9H-purin-9-yl)methyl]-1H-indol-5-yl}-N-cyclopropylbenzamide] it is 294 nM; for `COc1ccc(CCC(=O)NCc2cc3cc(Cl)cc(Cn4cnc5c(N)ncnc54)c3[nH]2)cc1` [Example 315, N-({7-[(6-amino-9H-purin-9-yl)methyl]-5-chloro-1H-indol-2-yl}methyl)-3-(4-methoxyphenyl)propanamide] it is 4080 nM. The figure for `CC(=O)c1cc2cc(Cl)cc(Cn3cnc4c(N)ncnc43)c2[nH]1` [Example 87, 1-{7-[(6-amino-9H-purin-9-yl)methyl]-5-chloro-1H-indol-2-yl}ethanone] is > 50000 nM; for `N#Cc1ccc(F)c(CNCc2cc3cc(Cl)cc(Cn4cnc5c(N)ncnc54)c3[nH]2)c1` [Example 270, 3-{[({7-[(6-amino-9H-purin-9-yl)methyl]-5-chloro-1H-indol-2-yl}methyl)amino]methyl}-4-fluorobenzonitrile] it is 3750 nM. As for `Nc1ncnc2c1ncn2Cc1cc(Cl)cc2cc(CNC(=O)c3ccc4sccc4c3)[nH]c12` [Example 354, N-({7-[(6-amino-9H-purin-9-yl)methyl]-5-chloro-1H-indol-2-yl}methyl)-1-benzothiophene-5-carboxamide], the figure is 5960 nM. Regarding `N#Cc1cc(Cl)c(C(=O)NCc2cc3cc(Cl)cc(Cn4cnc5c(N)ncnc54)c3[nH]2)c(Cl)c1` [Example 283, N-({7-[(6-amino-9H-purin-9-yl)methyl]-5-chloro-1H-indol-2-yl}methyl)-2,6-dichloro-4-cyanobenzamide], the IC50 worked out at 52.6 nM.

Regarding `Cc1oncc1C(=O)NCc1cc2cc(Cl)cc(Cn3cnc4c(N)ncnc43)c2[nH]1` [Example 149, N-({7-[(6-amino-9H-purin-9-yl)methyl]-5-chloro-1H-indol-2-yl}methyl)-5-methyl-1,2-oxazole-4-carboxamide], the IC50 was determined as 2040 nM. Take `Nc1ncnc2c1ncn2Cc1cc(Cl)cc2cc(CNC(=O)C3CCOCC3)[nH]c12` [Example 126, N-({7-[(6-amino-9H-purin-9-yl)methyl]-5-chloro-1H-indol-2-yl}methyl)tetrahydro-2H-pyran-4-carboxamide]: the IC50 was found to be 2230 nM. Regarding `Nc1ncnc2c1ncn2Cc1cc(Cl)cc2cc(CNC(=O)c3ccccc3)[nH]c12` [Example 220, N-({7-[(6-amino-9H-purin-9-yl)methyl]-5-chloro-1H-indol-2-yl}methyl)benzamide], the IC50 is 4050 nM.

Consider `COc1cccc(CCC(=O)NCc2cc3cc(Cl)cc(Cn4cnc5c(N)ncnc54)c3[nH]2)c1` [Example 316, N-({7-[(6-amino-9H-purin-9-yl)methyl]-5-chloro-1H-indol-2-yl}methyl)-3-(3-methoxyphenyl)propanamide], for which the IC50 came out at 13000 nM. As for `COC1CCC(C(=O)NCc2cc3cc(Cl)cc(Cn4cnc5c(N)ncnc54)c3[nH]2)CC1` (centres unmarked) [Example 134, N-({7-[(6-amino-9H-purin-9-yl)methyl]-5-chloro-1H-indol-2-yl}methyl)-4-methoxycyclohexanecarboxamide], the figure is 1270 nM.

For `CC(C)(C)OC(=O)N1CCC[C@@H]1C(=O)NCc1cc2cc(Cl)cc(Cn3cnc4c(N)ncnc43)c2[nH]1` [Example 124, tert-butyl (2R)-2-[({7-[(6-amino-9H-purin-9-yl)methyl]-5-chloro-1H-indol-2-yl}methyl)carbamoyl]pyrrolidine-1-carboxylate], the IC50 stood at 23900 nM. With `Cc1noc(C)c1C(=O)NCc1cc2cc(-c3ccc(C(=O)N(C)C)cc3)cc(Cn3cnc4c(N)ncnc43)c2[nH]1` [Example 176, N-({7-[(6-amino-9H-purin-9-yl)methyl]-5-[4-(dimethylcarbamoyl)phenyl]-1H-indol-2-yl}methyl)-3,5-dimethyl-1,2-oxazole-4-carboxamide], the IC50 came to 87.5 nM. Turning to `Nc1ncnc2c1ncn2Cc1cc(Cl)cc2cc(CNCc3ccccc3)[nH]c12` [Example 207, 9-({2-[(benzylamino)methyl]-5-chloro-1H-indol-7-yl}methyl)-9H-purin-6-amine], the IC50 turned out to be 943 nM.

As for `Cc1nc2cc(C(=O)NCc3cc4cc(Cl)cc(Cn5cnc6c(N)ncnc65)c4[nH]3)ccc2n1C` [Example 367, N-({7-[(6-amino-9H-purin-9-yl)methyl]-5-chloro-1H-indol-2-yl}methyl)-1,2-dimethyl-1H-benzimidazole-5-carboxamide], the IC50 is 591 nM.
